Common to all, as to format: functional
For test [1], the system named is MCF7. In words: Antiproliferative activity against human MCF7 cells assessed as cell growth inhibition at 10 uM measured after 72 hrs by MTT assay relative to control. As to conditions: read-out: GI.
In test [2] the test system is HCT-116. In words: Antiproliferative activity against human HCT-116 cells assessed as cell growth inhibition at 10 uM measured after 72 hrs by MTT assay relative to control. Conditions: read-out: GI.
Test [3] concerns SK-BR-3. In words: Antiproliferative activity against human SK-BR-3 cells assessed as cell growth inhibition at 10 uM measured after 72 hrs by MTT assay relative to control. As to conditions: read-out: GI.
Test [4] deals with SK-BR-3. In words: Antiproliferative activity against human SK-BR-3 cells assessed as cell growth inhibition measured after 72 hrs by MTT assay.
The subject of test [5] is MCF7. In words: Antiproliferative activity against human MCF7 cells assessed as cell growth inhibition measured after 72 hrs by MTT assay.
The test system of test [6] is HCT-116. In words: Antiproliferative activity against human HCT-116 cells assessed as cell growth inhibition measured after 72 hrs by MTT assay.

The structures appear in SMILES notation.

Take `Nc1nc2[nH]c(CN3CCN(c4ccc([N+](=O)[O-])cc4)CC3)c(CN3CCN(c4ccc([N+](=O)[O-])cc4)CC3)c2c(=O)[nH]1`: the figures for the inhibition of growth at 10 µM in test [1], in test [2] and in test [3] were 1.26%, 1.94% and 6.79%, respectively.

Take `CCCCCCCC(=O)Nc1nc2[nH]cc(CN3CCN(CCO)CC3)c2c(=O)[nH]1`: the inhibition of growth at 10 µM in test [1] came to 42%; in test [2] it was 67.3%; in test [3], 62.2%.

For the compound `COc1c(C)cnc(Cn2cnc3c(Cl)nc(N)nc32)c1C` [BIIB021], the inhibition of growth at 10 µM in test [1] amounted to 84.8%; in test [2], 86.2%; in test [3], 71.9%. The GI50 in test [4] came out at 0.347 µM; in test [5], 0.392 µM.

For the compound `Nc1nc2[nH]c(CN3CCN(Cc4cccc(F)c4)CC3)c(CN3CCN(Cc4cccc(F)c4)CC3)c2c(=O)[nH]1`, the figures for the inhibition of growth at 10 µM in test [1], in test [2] and in test [3] were 16.1%, 13.6% and 10.5%, respectively.

Take `CCCCCCCC(=O)Nc1nc2[nH]cc(CN3CCN(C(=O)c4ccco4)CC3)c2c(=O)[nH]1`: the results for the inhibition of growth at 10 µM in test [1], in test [2] and in test [3] were 68.5%, 60.2% and 71.2%, respectively.

Take `CCCCCCCC(=O)Nc1nc2[nH]c(CN3CCN(c4cc(Cl)cc(Cl)c4)CC3)c(CN3CCN(c4cc(Cl)cc(Cl)c4)CC3)c2c(=O)[nH]1`: the inhibition of growth at 10 µM in test [1] stood at 10.7%; in test [2], 6.88%; in test [3] it was 42.5%.

On to `Nc1nc(O)c2c(CN3CCCCC3)c[nH]c2n1`, for which the values for the inhibition of growth at 10 µM in test [1], in test [2] and in test [3] were 23.8%, 24.1% and 17.5%, respectively.

Regarding `Nc1nc2[nH]cc(CN3CCN(CCO)CC3)c2c(=O)[nH]1`, the inhibition of growth at 10 µM in test [1] turned out to be 18.8%; in test [2], 17.8%; in test [3] it was 32.8%.

`CCCCCCCC(=O)Nc1nc2[nH]cc(CN3CCCCC3)c2c(=O)[nH]1`: the results for the inhibition of growth at 10 µM in test [1], in test [2] and in test [3] were 70.2%, 51.1% and 77.1%, respectively. Moreover, the concentration for 50% growth inhibition (GI50) in test [4] is 15 µM; in test [5], 13.4 µM; in test [6], 14.9 µM.

Turning to `CCCCCCCC(=O)Nc1nc2[nH]cc(CN3CCN(c4cccc(Cl)c4)CC3)c2c(=O)[nH]1`, the inhibition of growth at 10 µM in test [1] stood at 43.4%; in test [2], 72.7%; in test [3], 69.7%. In addition, the results for the concentration for 50% growth inhibition (GI50) in test [4] and in test [6] were 0.95 µM and 7.17 µM, respectively.

Regarding `N#Cc1ccccc1N1CCN(Cc2c[nH]c3nc(N)[nH]c(=O)c23)CC1`, the values for the inhibition of growth at 10 µM in test [1], in test [2] and in test [3] were 51.1%, 72% and 73.8%, respectively. Also, the GI50 was found to be 23.7 µM in test [4] and 8.37 µM in test [6].

Turning to `Nc1nc2[nH]cc(Cn3ccnc3)c2c(=O)[nH]1`, the inhibition of growth at 10 µM in test [1] came out at 38.8%; in test [2], 50.6%; in test [3], 38.8%.

`CCCCCCCC(=O)Nc1nc2[nH]cc(CN3CCN(CCN4CCOCC4)CC3)c2c(=O)[nH]1`: the values for the inhibition of growth at 10 µM in test [1], in test [2] and in test [3] were 88.6%, 93% and 90.4%, respectively.

`COc1ccc(N2CCN(Cc3c[nH]c4nc(N)[nH]c(=O)c34)CC2)cc1`: the inhibition of growth at 10 µM is 51.7% in test [1], 69.2% in test [2] and 57.5% in test [3]. Besides, the GI50 in test [4] was 11.2 µM.

For `Nc1nc2[nH]c(CN3CCN(Cc4ccccc4F)CC3)c(CN3CCN(Cc4ccccc4F)CC3)c2c(=O)[nH]1`, the figures for the inhibition of growth at 10 µM in test [1], in test [2] and in test [3] were 8.91%, 12.8% and 59%, respectively.

In the case of `CN1CCN(Cc2c[nH]c3nc(N)[nH]c(=O)c23)CC1`, the inhibition of growth at 10 µM in test [1] was 20.2%; in test [2], 16.5%; in test [3] it was 29%.

As for `CCCCCCCC(=O)Nc1nc2[nH]cc(Cn3ccnc3)c2c(=O)[nH]1`, the results for the inhibition of growth at 10 µM in test [1], in test [2] and in test [3] were 68.2%, 80.5% and 86.1%, respectively.

Take `CCCCCCCC(=O)Nc1nc2[nH]cc(CN3CCN(c4ccccc4)CC3)c2c(=O)[nH]1`: the inhibition of growth at 10 µM was 50.3% in test [1], 73.9% in test [2] and 67.6% in test [3]. Also, the figures for the GI50 in test [4] and in test [6] were 0.63 µM and 3.99 µM, respectively.

Consider `Nc1nc2[nH]c(CN3CCN(Cc4ccccc4)CC3)c(CN3CCN(Cc4ccccc4)CC3)c2c(=O)[nH]1`, for which the values for the inhibition of growth at 10 µM in test [1], in test [2] and in test [3] were 21.2%, 21.4% and 15.7%, respectively.

With `CCCCCCCC(=O)Nc1nc2[nH]c(CN3CCN(C(c4ccccc4)c4ccccc4)CC3)c(CN3CCN(C(c4ccccc4)c4ccccc4)CC3)c2c(=O)[nH]1`, the figures for the inhibition of growth at 10 µM in test [1], in test [2] and in test [3] were 15.2%, 41.5% and 67.3%, respectively. Besides, the concentration for 50% growth inhibition (GI50) in test [4] amounted to 6.43 µM; in test [6] it was 18.4 µM.

For `CCCCCCCC(=O)Nc1nc2[nH]c(CN3CCN(c4ccc([N+](=O)[O-])cc4)CC3)c(CN3CCN(c4ccc([N+](=O)[O-])cc4)CC3)c2c(=O)[nH]1`, the figures for the inhibition of growth at 10 µM in test [1], in test [2] and in test [3] were 12.6%, 27% and 64.6%, respectively.

Take `Nc1nc2[nH]cc(CN3CCN(c4ccccc4)CC3)c2c(=O)[nH]1`: the inhibition of growth at 10 µM in test [1] worked out at 49.7%; in test [2], 49%; in test [3], 30.7%.

Take `CCCCCCCC(=O)Nc1nc2[nH]cc(CN3CCC(NC(=O)OC(C)(C)C)CC3)c2c(=O)[nH]1`: the inhibition of growth at 10 µM is 36.5% in test [1], 50.3% in test [2] and 59.3% in test [3].

Consider `CC(=O)N1CCN(Cc2c[nH]c3nc(N)[nH]c(=O)c23)CC1`, for which the inhibition of growth at 10 µM is 16.2% in test [1], 13.8% in test [2] and 24.2% in test [3].

For the compound `Nc1nc2[nH]cc(CN3CCN(CCN4CCOCC4)CC3)c2c(=O)[nH]1`, the inhibition of growth at 10 µM was 19.5% in test [1], 15.4% in test [2] and 27.1% in test [3].

Consider `Nc1nc2[nH]c(CN3CCN(C(c4ccccc4)c4ccccc4)CC3)c(CN3CCN(C(c4ccccc4)c4ccccc4)CC3)c2c(=O)[nH]1`, for which the figures for the inhibition of growth at 10 µM in test [1], in test [2] and in test [3] were 13.8%, 10.7% and 11.1%, respectively.

Turning to `Nc1nc2[nH]cc(CN3CCN(c4cccc(Cl)c4)CC3)c2c(=O)[nH]1`, the values for the inhibition of growth at 10 µM in test [1], in test [2] and in test [3] were 54.2%, 79.3% and 67.5%, respectively. The 50% growth inhibitory concentration (GI50) in test [4] was 8.28 µM; in test [6] it was 7.66 µM.

Regarding `Nc1nc2[nH]cc(CN3CCN(Cc4cccc(F)c4)CC3)c2c(=O)[nH]1`, the inhibition of growth at 10 µM in test [1] was 20.6%; in test [2], 31.1%; in test [3] it was 16.8%.

Turning to `CCCCCCCC(=O)Nc1nc2[nH]cc(CN3CCN(c4ccc([N+](=O)[O-])cc4)CC3)c2c(=O)[nH]1`, the results for the inhibition of growth at 10 µM in test [1], in test [2] and in test [3] were 40.4%, 68.5% and 61.6%, respectively. Moreover, in test [4], the GI50 is 8.04 µM.

For `Nc1nc2[nH]c(CN3CCN(Cc4ccc(F)cc4)CC3)c(CN3CCN(Cc4ccc(F)cc4)CC3)c2c(=O)[nH]1`, the inhibition of growth at 10 µM in test [1] was determined as 18.4%; in test [2], 23%; in test [3] it was 23.2%.

For `Nc1nc2[nH]cc(CN3CCN(C(c4ccccc4)c4ccccc4)CC3)c2c(=O)[nH]1`, the figures for the inhibition of growth at 10 µM in test [1], in test [2] and in test [3] were 79.5%, 80.5% and 4.22%, respectively. For the same compound, the 50% growth inhibitory concentration (GI50) in test [5] was 33.9 µM; in test [6], 20.3 µM.

For `CCCCCCCC(=O)Nc1nc2[nH]cc(CN3CCN(C)CC3)c2c(=O)[nH]1`, the inhibition of growth at 10 µM was determined as 59.6% in test [1], 51% in test [2] and 50.4% in test [3].

Take `CCCCCCCC(=O)Nc1nc2[nH]cc(CN3CCN(C(C)=O)CC3)c2c(=O)[nH]1`: the inhibition of growth at 10 µM was 35.8% in test [1], 43.8% in test [2] and 40.2% in test [3].

Consider `CCCCCCCC(=O)Nc1nc2[nH]cc(CN3CCN(c4ccccc4C#N)CC3)c2c(=O)[nH]1`, for which the values for the inhibition of growth at 10 µM in test [1], in test [2] and in test [3] were 59.2%, 79.5% and 84.6%, respectively. Further, the concentration for 50% growth inhibition (GI50) in test [4] was 0.97 µM; in test [6], 1.46 µM.

`CCCCCCCC(=O)Nc1nc2[nH]cc(CN3CCN(c4ccc(OC)cc4)CC3)c2c(=O)[nH]1`: the results for the inhibition of growth at 10 µM in test [1], in test [2] and in test [3] were 49.2%, 71.4% and 71.4%, respectively. Also, the GI50 in test [4] stood at 1.23 µM; in test [6], 8.94 µM.

`CCCCCCCC(=O)Nc1nc2[nH]cc(CN3CCN(C(c4ccccc4)c4ccccc4)CC3)c2c(=O)[nH]1`: the inhibition of growth at 10 µM amounted to 58.4% in test [1], 75.5% in test [2] and 67.4% in test [3]. The 50% growth inhibitory concentration (GI50) in test [4] stood at 0.41 µM; in test [6], 1.01 µM.

Regarding `Nc1nc2[nH]cc(CN3CCN(c4ccc([N+](=O)[O-])cc4)CC3)c2c(=O)[nH]1`, the inhibition of growth at 10 µM in test [1] stood at 26.8%; in test [2], 28.5%; in test [3], 27.5%.

The values above are taken from ChEMBL document CHEMBL4673219, “Novel 5,6-disubstituted pyrrolo[2,3-d]pyrimidine derivatives as broad spectrum antiproliferative agents: Synthesis, cell based assays, kinase profile and molecular docking study” (Bioorg Med Chem, 2018).
